# Read-outs that look alike come from different tables or passages of the source.
# Experiments:
# in vitro = details: human
# Protocol: (§1) Following the addition of 20 μL of Alamar Blue, the plates were incubated and the ODs measured at 24 h, 48 h and 72 h.
# [1] = test system: Trypanosoma brucei brucei laboratory strain TC 221; assay: Trypanosoma brucei brucei trypomastigote growth inhibition (Alamar Blue); type: cell-based
# Protocol: [22] Trypomastigote forms of Trypanosoma brucei brucei laboratory strain TC 221 were cultured in complete Baltz medium [80 mL Baltz medium basic solution, 0.8 mL 2 mercaptoethanol stock solution (20 mM), 0.8 mL penicillin/streptomycin (10,000 U/mL), 16 mL FCS (inactivated for 30 min at 56 °C). Baltz medium basic solution is composed of the following: 500 mL MEM with Earle’s salts and L-glutamine, 3 g Hepes, 0.5 g monohydrate glucose, 0.110 g sodium pyruvate, 0.007 g hypoxanthine, 0.002 g thymidine, 0.0107 g adenosine, 0.0141 g bathocuproine disulfonic acid disodium salt, 0.146 g glutamine, 5 mL sterile non-essential amino acid concentrate (100×, pH 7.5). A defined number of parasites ([…]) were exposed in test chambers of 96-well plates to various concentrations of the test substances (previously dissolved in DMSO) to make a final volume of 200 μL in duplicates. Positive (trypanosomes in culture medium) and negative controls (test substance without trypanosomes) were run simultaneously with each plate. The plates were then incubated at 37 °C in an atmosphere of 5% CO2 for a total time period of 72 h. After 24 h, 20 μL of Alamar Blue was added. […]. The first reading was done at 48 h and subsequently at 72 h. The effect of the test substances was quantified in IC50 values by linear interpolation of three independent measurements.
# [2] = Cytotoxicity against 293T kidney epithelial cells (Alamar Blue); details: human
# Protocol: as §1
# [3] = Cytotoxicity against J774.1 macrophages (Alamar Blue); details: mouse
# Protocol: as §1
# [4] = test system: Leishmania major promastigotes; assay: Leishmania major promastigote growth inhibition (Alamar Blue); type: cell-based
# Protocol: Leishmania major promastigotes were seeded at a cell density of 1 × 10^7 cells/mL into 96-well plates in complete medium (RPMI with NaHCO3, 10% FCS, 2 mM glutamine, 10 mM Hepes pH 7.2, 100 U/mL penicillin, 50 μg/mL gentamicin, 50 mM 2-mercaptoethanol) without phenol red (200 mL), in the absence or presence of different concentrations of the compounds. These were then incubated for 24 h at 26 °C, 5% CO2 and 95% humidity. Following the addition of 20 mL of Alamar Blue, the plates were incubated again and the optical densities (ODs) measured 24 h and 48 h later with an enzyme-linked immunosorbent assay (ELISA) reader (Multiskan Ascent, Germany) using a test wavelength of 540 nm and a reference wavelength of 630 nm. Absorbance in the absence of compounds was set as 100% of growth. Amphotericin B was used as a reference compound and positive control. The effects of cell density, incubation time and the concentration of DMSO were examined in control experiments. The final concentration of DMSO in the medium never exceeded 1% vol/vol and had no effect on the proliferation of extracellular or intracellular parasites. For each experiment, each drug concentration was assayed in duplicate wells [31]
SMILES,IC50 (in vitro) [nM],"IC50 ([1]; reading at 48 h, read-out: IC50 Trypanosoma brucei brucei (48 h)) [nM]","IC50 ([1]; reading at 72 h, read-out: IC50 Trypanosoma brucei brucei (72 h)) [nM]",IC50 at 24 h [2] [nM],IC50 at 24 h [3] [nM],"IC50 ([1]; 48 h, read-out: IC50 Trypanosoma brucei brucei (48 h)) [nM]","IC50 ([1]; 72 h, read-out: IC50 Trypanosoma brucei brucei (72 h)) [nM]",IC50 [4] [nM]
CN[C@@H]1C[C@H]2O[C@@](C)([C@@H]1OC)n1c3ccccc3c3c4c(c5c6ccccc6n2c5c31)C(=O)NC4 [staurosporine],1300,22,35,–,–,–,–,–
CC(C)[C@@H]1NC(=O)[C@H](C)OC(=O)[C@@H](C(C)C)NC(=O)[C@@H](C(C)C)OC(=O)[C@H](C(C)C)NC(=O)[C@H](C)OC(=O)[C@@H](C(C)C)NC(=O)[C@@H](C(C)C)OC(=O)[C@H](C(C)C)NC(=O)[C@H](C)OC(=O)[C@@H](C(C)C)NC(=O)[C@@H](C(C)C)OC1=O [valinomycin],–,–,–,11200,< 100,3.2,3.6,< 110

# From publication PMC2852844, “Anti-Parasitic Compounds from Streptomyces sp. Strains Isolated from Mediterranean Sponges” (Marine Drugs, 2010)
